In brackets after ≈: the same amount, converted by molar mass. Where two headings read alike, the source gives them in different places. Bridge positions count the residues as written; N and C are the ends. Square brackets hold non-standard residues; d marks the D form. Peptide text beside a SMILES is read from it. * marks the point of attachment. Ileψ(thiazoline)Cys = CC[C@H](C)[C@H](N)C1=N[C@H](C(=O)*)CS1; dOrn = NCCC[C@@H](N)C(=O)O; X1 = CC[C@H](C)CCCCC(=O)*; Dab = NCC[C@H](N)C(=O)O
What was measured:
[1] = system: extensively drug-resistant A. baumannii clinical isolates (planktonic cell); experiment: microbe, parasite or virus in culture; type: cell-based, Acinetobacter baumannii
Text: (§1) Nine XDRAB strains were isolated from clinical specimens such as the septum, urine, or respiratory lavage fluid of patients from the respiratory intensive care unit, intensive care unit, the cardiothoracic surgery department, and the neurology department at the First Affiliated Hospital of Chengdu Medical College during the period from 2018 to 2020 (Chengdu, Sichuan, China). In addition, A. baumannii ATCC 19606, Staphylococcus aureus ATCC 29213, and Escherichia coli ATCC 25922 were used as quality control strains in antimicrobial susceptibility testing (AST) and obtained from the American Type Culture Collection (ATCC, Manassas, VA, United States).
The minimum inhibitory concentrations (MICs) were determined by the broth microdilution method for the antibacterial agents and peptide antibiotics for A. baumannii based on the guidelines provided by the Clinical and Laboratory Standards Institute (CLSI) ([Humphries et al., 2021]). Briefly, bacterial cells were inoculated in Luria–Bertani agar medium at 37°C for 16–20 h, and then resuspended in saline (0.9% sodium chloride) to adjust the bacterial content to reach the 0.5 McFarland turbidity standard, followed by a 20-fold dilution. Antimicrobial solutions were prepared according to the CLSI ([Humphries et al., 2021]). Finally, 180 μl CAMHB, 10 µl corresponding antimicrobials, and 10 µl bacterial resuspension were added into 96-well plate (NEST TC, 701001, www.cell-nest.com). The value of OD600 was measured after incubating at 37°C for 16–20 h.

[2] = system: extensively drug-resistant A. baumannii clinical isolates (biofilm cell); type: cell-based, Acinetobacter baumannii
Text: as §1
The minimum biofilm inhibitory concentrations (MBICs) were detected using a previous study protocol ([Kart et al., 2021]) for the antibacterial agents and peptide antibiotics for A. baumannii in the biofilm cell. First, bacterial cells were inoculated in Luria–Bertani agar medium at 37°C for 16–20 h. Next, the bacterial monoclones were resuspended in saline (0.9% sodium chloride) to adjust the bacterial content to reach the 0.5 McFarland turbidity standard. Then, 190 µl TSB and 10 µl bacterial resuspension were mixed in a 96-well plate. After incubating at 37°C for 24 h, the medium was aspirated, and 200 µl PBS was added to wash three times. Finally, 190 μl MH broth medium and 10 µl corresponding antibiotics were added into 96-well plate (NEST TC, 701001, www.cell-nest.com). The optical density was measured at OD600 after incubating for 16–20 h at 37°C.

[3] = Acinetobacter baumannii, isolate AB1, planktonic, broth microdilution, CAMHB, 37°C 16–20 h, OD600, read-out: MIC
[4] = Acinetobacter baumannii, isolate AB2, planktonic, broth microdilution, CAMHB, 37°C 16–20 h, OD600, read-out: MIC
[5] = Acinetobacter baumannii, isolate AB3, planktonic, broth microdilution, CAMHB, 37°C 16–20 h, OD600, read-out: MIC
[6] = Acinetobacter baumannii, isolate AB4, planktonic, broth microdilution, CAMHB, 37°C 16–20 h, OD600, read-out: MIC
[7] = Acinetobacter baumannii, isolate AB5, planktonic, broth microdilution, CAMHB, 37°C 16–20 h, OD600, read-out: MIC
[8] = Acinetobacter baumannii, isolate AB6, planktonic, broth microdilution, CAMHB, 37°C 16–20 h, OD600, read-out: MIC
[9] = Acinetobacter baumannii, isolate AB7, planktonic, broth microdilution, CAMHB, 37°C 16–20 h, OD600, read-out: MIC
[10] = Acinetobacter baumannii, isolate AB8, planktonic, broth microdilution, CAMHB, 37°C 16–20 h, OD600, read-out: MIC
[11] = Acinetobacter baumannii, isolate AB9, planktonic, broth microdilution, CAMHB, 37°C 16–20 h, OD600, read-out: MIC
[12] = isolate AB3, planktonic, broth microdilution, CAMHB, 37°C 16–20 h, OD600
[13] = isolate AB4, planktonic, broth microdilution, CAMHB, 37°C 16–20 h, OD600
[14] = isolate AB5, planktonic, broth microdilution, CAMHB, 37°C 16–20 h, OD600
[15] = isolate AB6, planktonic, broth microdilution, CAMHB, 37°C 16–20 h, OD600
[16] = isolate AB8, planktonic, broth microdilution, CAMHB, 37°C 16–20 h, OD600
[17] = isolate AB9, planktonic, broth microdilution, CAMHB, 37°C 16–20 h, OD600
[18] = isolate AB1, planktonic, broth microdilution, CAMHB, 37°C 16–20 h, OD600
[19] = isolate AB2, planktonic, broth microdilution, CAMHB, 37°C 16–20 h, OD600
[20] = isolate AB7, planktonic, broth microdilution, CAMHB, 37°C 16–20 h, OD600

MIC [1, 3] [µg/mL]	MIC [1, 4] [µg/mL]	MIC [1, 5] [µg/mL]	MIC [1, 6] [µg/mL]	MIC [1, 7] [µg/mL]	MIC [1, 8] [µg/mL]	MIC [1, 9] [µg/mL]	MIC [1, 10] [µg/mL]	MIC [1, 11] [µg/mL]	SMILES	MIC [1, 12] [µg/mL]	MIC [1, 13] [µg/mL]	MIC [1, 14] [µg/mL]	MIC [1, 15] [µg/mL]	MIC [1, 16] [µg/mL]	MIC [1, 18] [µg/mL]	MIC [1, 19] [µg/mL]	MIC [1, 20] [µg/mL]	also measured
32 (≈ 99 µM)	32 (≈ 99 µM)	32 (≈ 99 µM)	32 (≈ 99 µM)	32 (≈ 99 µM)	32 (≈ 99 µM)	32 (≈ 99 µM)	32 (≈ 99 µM)	32 (≈ 99 µM)	O=C(N[C@H](CO)[C@H](O)c1ccc([N+](=O)[O-])cc1)C(Cl)Cl [Chloramphenicol, chloramphenicol]									
64 (≈ 214 µM)	64 (≈ 214 µM)	64 (≈ 214 µM)	64 (≈ 214 µM)	64 (≈ 214 µM)	64 (≈ 214 µM)	64 (≈ 214 µM)	64 (≈ 214 µM)	64 (≈ 214 µM)	C[C@@H](O)[C@H]1C(=O)N2C(C(=O)O)=C(SCCN=CN)C[C@H]12 [Imipenem, imipenem]									
32 (≈ 83.4 µM)	32 (≈ 83.4 µM)	32 (≈ 83.4 µM)	32 (≈ 83.4 µM)	32 (≈ 83.4 µM)	32 (≈ 83.4 µM)	32 (≈ 83.4 µM)	32 (≈ 83.4 µM)	32 (≈ 83.4 µM)	C[C@@H](O)[C@H]1C(=O)N2C(C(=O)O)=C(S[C@@H]3CN[C@H](C(=O)N(C)C)C3)[C@H](C)[C@H]12 [Meropenem, meropenem]									
16 (≈ 35 µM)	16 (≈ 35 µM)	16 (≈ 35 µM)	16 (≈ 35 µM)	16 (≈ 35 µM)	16 (≈ 35 µM)	16 (≈ 35 µM)	16 (≈ 35 µM)	16 (≈ 35 µM)	CN(C)c1ccc(O)c2c1C[C@H]1C[C@H]3[C@H](N(C)C)C(O)=C(C(N)=O)C(=O)[C@@]3(O)C(O)=C1C2=O [Minocycline, minocycline]									
> 1020	> 1020	> 1020	> 1020	> 1020	> 1020	> 1020	> 1020	> 1020	CCN1CCN(C(=O)N[C@@H](C(=O)N[C@@H]2C(=O)N3[C@@H]2SC(C)(C)[C@@H]3C(=O)O)c2ccccc2)C(=O)C1=O [Piperacillin, piperacillin]									

The remaining lines, values behind:

SMILES	MIC [1, 3] [µg/mL]	MIC [1, 4] [µg/mL]	MIC [1, 5] [µg/mL]	MIC [1, 6] [µg/mL]	MIC [1, 7] [µg/mL]	MIC [1, 8] [µg/mL]	MIC [1, 9] [µg/mL]	MIC [1, 10] [µg/mL]	MIC [1, 11] [µg/mL]	MIC [1, 12] [µg/mL]	MIC [1, 13] [µg/mL]	MIC [1, 14] [µg/mL]	MIC [1, 15] [µg/mL]	MIC [1, 16] [µg/mL]	MIC [1, 18] [µg/mL]	MIC [1, 19] [µg/mL]	MIC [1, 20] [µg/mL]	also measured
NCC[C@H](O)C(=O)N[C@@H]1C[C@H](N)[C@@H](O[C@H]2O[C@H](CN)[C@@H](O)[C@H](O)[C@H]2O)[C@H](O)[C@H]1O[C@H]1O[C@H](CO)[C@@H](O)[C@H](N)[C@H]1O [Amikacin, amikacin]	> 1020	> 1020	> 1020	> 1020	> 1020	> 1020	> 1020	> 1020	> 1020									
CC[C@H](C)[C@H](N)C1=N[C@H](C(=O)N[C@@H](CC(C)C)C(=O)N[C@H](CCC(=O)O)C(=O)N[C@H](C(=O)N[C@H]2CCCCNC(=O)[C@H](CC(N)=O)NC(=O)[C@@H](CC(=O)O)NC(=O)[C@H](Cc3cnc[nH]3)NC(=O)[C@@H](Cc3ccccc3)NC(=O)[C@H]([C@@H](C)CC)NC(=O)[C@@H](CCCN)NC2=O)[C@@H](C)CC)CS1 [Bacitracin, bacitracin] ({Ileψ(thiazoline)Cys}-L[dE]IK[dOrn]I[dF]H[dD]N; lactam 4-C (inferred); N-terminus assumed)										128 (≈ 90 µM)	128 (≈ 90 µM)	128 (≈ 90 µM)	128 (≈ 90 µM)	128 (≈ 90 µM)				MIC [1]: 64 µg/mL (≈ 45 µM); MIC [1, 17]: 128 µg/mL (≈ 90 µM); MBIC ([2]; extensively drug-resistant clinical isolates (biofilm cell, 24 h)): 256 µg/mL
CO/N=C(\C(=O)N[C@@H]1C(=O)N2C(C(=O)O)=C(COC(C)=O)CS[C@H]12)c1csc(N)n1 [Cefotaxime, cefotaxime]										256 (≈ 562 µM)	256 (≈ 562 µM)	256 (≈ 562 µM)	256 (≈ 562 µM)	256 (≈ 562 µM)	256 (≈ 562 µM)	256 (≈ 562 µM)	256 (≈ 562 µM)	MIC ([1]; Acinetobacter baumannii): 256 µg/mL (≈ 562 µM)
CC(C)(O/N=C(\C(=O)N[C@@H]1C(=O)N2C(C(=O)[O-])=C(C[n+]3ccccc3)CS[C@H]12)c1csc(N)n1)C(=O)O [Ceftazidime, ceftazidime]										256 (≈ 468 µM)	256 (≈ 468 µM)	256 (≈ 468 µM)	256 (≈ 468 µM)	256 (≈ 468 µM)	256 (≈ 468 µM)	256 (≈ 468 µM)	256 (≈ 468 µM)	MIC ([1]; Acinetobacter baumannii): 256 µg/mL (≈ 468 µM)
CNC(C)C1CCC(N)C(OC2C(N)CC(N)C(OC3OCC(C)(O)C(NC)C3O)C2O)O1 (centres unmarked) [Gentamicin, gentamicin]										>1024	>1024	>1024	>1024	>1024	>1024	>1024	>1024	MIC ([1]; Acinetobacter baumannii): > 1020 µg/mL
C[C@H]1COc2c(N3CCN(C)CC3)c(F)cc3c(=O)c(C(=O)O)cn1c23 [Levofloxacin, levofloxacin]	16 (≈ 44.3 µM)	16 (≈ 44.3 µM)	16 (≈ 44.3 µM)	8 (≈ 22.1 µM)	8 (≈ 22.1 µM)	16 (≈ 44.3 µM)	8 (≈ 22.1 µM)	16 (≈ 44.3 µM)	16 (≈ 44.3 µM)									
CC[C@H](C)CCCCC(=O)N[C@@H](CCN)C(=O)N[C@H](C(=O)N[C@@H](CCN)C(=O)N[C@H]1CCNC(=O)[C@H]([C@@H](C)O)NC(=O)[C@H](CCN)NC(=O)[C@H](CCN)NC(=O)[C@H](CC(C)C)NC(=O)[C@@H](Cc2ccccc2)NC(=O)[C@H](CCN)NC1=O)[C@@H](C)O [Polymyxin B, polymyxin B] (X1-[Dab]T[Dab][Dab][Dab][dF]L[Dab][Dab]T; lactam 4-C (inferred); N-terminus assumed)										1 (≈ 0.831 µM)	2 (≈ 1.66 µM)	2 (≈ 1.66 µM)	1 (≈ 0.831 µM)	2 (≈ 1.66 µM)	2 (≈ 1.66 µM)	1 (≈ 0.831 µM)	2 (≈ 1.66 µM)	MIC [1, 17]: 2 µg/mL (≈ 1.66 µM); MBIC ([2]; isolate AB1, 24 h biofilm in TSB, then MH broth with drug 16–20 h 37°C, OD600): 16 µg/mL; MBIC ([2]; isolate AB2, 24 h biofilm in TSB, then MH broth with drug 16–20 h 37°C, OD600): 16 µg/mL; MBIC ([2]; isolate AB3, 24 h biofilm in TSB, then MH broth with drug 16–20 h 37°C, OD600): 8 µg/mL; MBIC ([2]; isolate AB4, 24 h biofilm in TSB, then MH broth with drug 16–20 h 37°C, OD600): 8 µg/mL; MBIC ([2]; isolate AB5, 24 h biofilm in TSB, then MH broth with drug 16–20 h 37°C, OD600): 16 µg/mL; MBIC ([2]; isolate AB6, 24 h biofilm in TSB, then MH broth with drug 16–20 h 37°C, OD600): 16 µg/mL; MBIC ([2]; isolate AB7, 24 h biofilm in TSB, then MH broth with drug 16–20 h 37°C, OD600): 8 µg/mL; MBIC ([2]; isolate AB8, 24 h biofilm in TSB, then MH broth with drug 16–20 h 37°C, OD600): 8 µg/mL; MBIC ([2]; isolate AB9, 24 h biofilm in TSB, then MH broth with drug 16–20 h 37°C, OD600): 8 µg/mL
CN(C)[C@@H]1C(O)=C(C(N)=O)C(=O)[C@@]2(O)C(O)=C3C(=O)c4c(O)cccc4[C@@](C)(O)[C@H]3C[C@@H]12 [Tetracycline, tetracycline]	> 1020	> 1020	> 1020	> 1020	> 1020	> 1020	> 1020	> 1020	> 1020									

From paper PMC9130746, “In Vitro Activity of Peptide Antibiotics in Combination With Other Antimicrobials on Extensively Drug-Resistant Acinetobacter baumannii in the Planktonic and Biofilm Cell” (Frontiers in Pharmacology, 2022)
